Where two headings read alike, the source gives them in different places.
Tests used:
[1] = Urine sample
Experimental: (§1) The mice were purchased from Beijing Weili Tonghua Experimental Animal Technology Co., Ltd. Based on the weight, the mice were randomly divided into 5 groups, with each group including 3 animals.
(§2) Before the pharmacokinetic test, the mice were fasted for 16 hours. […] 200 μl of blood was collected at preset timepoint by jugular vein puncture after administration. For the animal group subjected to intravenous administration, blood was collected at minute 0, minute 15, minute 30, hour 1, hour 2, hour 4, hour 8 and hour 24 after administration. Urine was collected at hour 2, hour 4, hour 8, hour 12 and hour 24. The blood was collected in a sample tube containing EDTA and blood sample was immediately centrifuged at 4000 rpm at 4° C. for 5 minutes. The plasma was transferred to another sample tube and stored at minus 20° C.
(§3) The following method and apparatus were used:
(§4) Mobile phase: 100% of acetonitrile (3 mM ammonium acetate) and 100% of water (3 mM ammonium acetate) Quantitation method: internal standard method

[2] = Hygroscopicity study (Chinese Pharmacopoeia 2015, 9103); format: physicochemical
Experimental: Test method: • 1. A dried glass weighing bottle with stopper (having an outer diameter of 50 mm and a height of 15 mm) was placed in a thermostatic drier (a saturated ammonium chloride solution was placed on the lower part of the thermostatic drier) at an appropriate temperature of 25° C.±1° C. on the day earlier before the test, and the weight (m1) of weighing bottle was precisely weighed. • 2. An appropriate amount of test sample was taken and spread in the weighing bottle, and the thickness of the test sample was controlled to about 1 mm, and the weight (m2) was precisely weighed. • 3. The weighing bottle was opened and was placed, together with the bottle cap, under the above mentioned constant temperature and humidity condition for 24 hours. • 4. The weighing bottle was capped and precisely weighed to obtain the weight (m3).
Description of hygroscopicity characterization and delimitation of hygroscopicity weight gain: Deliquescence: enough moisture is absorbed to form a liquid. […] Slightly hygroscopic: hygroscopic weight gain is less than 2% but not less than 0.2%. Not or hardly hygroscopic: hygroscopic weight gain is less than 0.2%.

[3] = Solubility study; conditions: Solubility
[4] = Stability experiments under 40° C.±2° C. and 75% R.H±5% R.H (accelerated test); format: physicochemical; conditions: 40° C./75% R.H
[5] = Stability experiments under 25° C.±2° C. and 65% R.H±5% R.H; conditions: 25° C./65% R.H
Description: • 1. […] The results are shown in detail in the following table.

[6] = in vivo; conditions: female, mouse, 1 mg/kg
Experimental: as §1, §2, §3, §4

[7] = background statement; cited from earlier work
[8] = day 5, High temperature of 40° C.
[9] = day 10, High temperature of 40° C.

**Q.** Which results are given for `CC[C@@H]([C@H](C)OP(=O)(O)O)n1ncn(-c2ccc(N3CCN(c4ccc(OC[C@@H]5CO[C@@](Cn6cncn6)(c6ccc(F)cc6F)C5)cc4)CC3)cc2)c1=O` [Example 1, Posaconazole Phosphate Monocholinate]?
**A.** Concentration of the compound in Example 1 ([1]; 0~2 h, 1 mg/kg intravenous): 149.1 ng/mL; Concentration of the compound in Example 1 ([1]; 2~4 h): 641.6 ng/mL; Concentration of the compound in Example 1 ([1]; 4~8 h): 973.0 ng/mL; Concentration of the compound in Example 1 ([1]; 8~12 h): 716.5 ng/mL; Concentration of the compound in Example 1 ([1]; 12~24 h): 400.9 ng/mL; Hygroscopic weight gain ([2]; 25° C.±1° C., saturated ammonium chloride solution, 24 hours): 0.12%; Conclusion (hygroscopicity) ([2]; after 24 hours): No hygroscopicity; solubility ([3]; organic solvent or mixture, Methanol, in methanol): 35 mg/mL; solubility ([3]; water, in water): 82 mg/mL; Content ([4]; month 0): 99.87%; Description ([4]; month 0): White; Related substance ([4]; month 0): 0.13%; Content ([4]; month 1): 99.87%; Description ([4]; month 1): White; Related substance ([4]; month 1): 0.13%; Content ([4]; month 2): 99.86%; Description ([4]; month 2): White; Related substance ([4]; month 2): 0.14%; Content ([4]; month 3): 99.85%; Description ([4]; month 3): White; Related substance ([4]; month 3): 0.15%; Content ([4]; month 6): 99.84%; Description ([4]; month 6): White; Related substance ([4]; month 6): 0.16%; stability (conclusion in words) ([5]; up to month 24): higher than that of the compounds in Comparative examples 1˜11; Content ([5]; month 0): 99.87%; Description ([5]; month 0): White; Related substance ([5]; month 0): 0.13%; Content ([5]; month 3): 99.87%; Description ([5]; month 3): White; Related substance ([5]; month 3): 0.13%; Content ([5]; month 6): 99.87%; Description ([5]; month 6): White; Related substance ([5]; month 6): 0.13%; Content ([5]; month 9): 99.85%; Description ([5]; month 9): White; Related substance ([5]; month 9): 0.15%; Content ([5]; month 12): 99.84%; Description ([5]; month 12): White; Related substance ([5]; month 12): 0.16%; Content ([5]; month 24): 99.80%; Description ([5]; month 24): White; Related substance ([5]; month 24): 0.20%; concentration at 0.25 h ([6]; plasma, iv): 5560 ng/mL; concentration at 0.5 h ([6]; plasma, iv): 7040 ng/mL; concentration at 1 h ([6]; plasma, iv): 7630 ng/mL; concentration at 2 h ([6]; plasma, iv): 8270 ng/mL; concentration at 4 h ([6]; plasma, iv): 7520 ng/mL; concentration at 8 h ([6]; plasma, iv): 7780 ng/mL; concentration at 24 h ([6]; plasma, iv): 7920 ng/mL; concentration at 24 h ([6]; urine, intravenous): 0 ng/mL; Content (day 0): 99.87%; Description (day 0): White; Related substance (day 0): 0.13%; Content (day 5, High humidity of 92.5%): 99.86%; Description (day 5, High humidity of 92.5%): White; Related substance (day 5, High humidity of 92.5%): 0.14%; Content [8]: 99.87%; Description [8]: White; Related substance [8]: 0.13%; Content (day 5, Illumination of 4500LX): 99.87%; Description (day 5, Illumination of 4500LX): White; Related substance (day 5, Illumination of 4500LX): 0.13%; Content (day 10, High humidity of 92.5%): 99.86%; Description (day 10, High humidity of 92.5%): White; Related substance (day 10, High humidity of 92.5%): 0.14%; Content [9]: 99.85%; Description [9]: White; Related substance [9]: 0.15%; Content (day 10, Illumination of 4500LX): 99.86%; Description (day 10, Illumination of 4500LX): White; Related substance (day 10, Illumination of 4500LX): 0.14%

**Q.** For sulfobutyl ether-β-cyclodextrin, which preclinical toxicology finding [7] is on record?
**A.** causes vacuolization of the urothelial cells and activation of the macrophages in the liver and lung

Reference: patent US20210147455A1 (SHAANXI SYNTHETIC PHARMACEUTICAL CO., LTD., priority 2018, published 2021)
